Measurements as given in ChEMBL document CHEMBL1159219, “Flavonoids as DNA topoisomerase antagonists and poisons: structure-activity relationships” (J Nat Prod, 1995).
Values after ≈ are worked out from the molar mass of the structure shown. Active and inactive are the calls of the source. The rule behind the calls is not given here.

What was measured:
Bos taurus [1] = species on record: Bos taurus; assay: Inhibition of calf thymus DNA topoisomerase 1 catalytic domain-mediated supercoiled Escherichia coli pUC8 DNA relaxation up to 100 uM after 30 mins by agarose gel electrophoresis
[2] = target: T1, DNA topoisomerase 2-alpha (Homo sapiens, UniProt P11388); assay: Inhibition of human DNA topoisomerase 2 catalytic domain-mediated knotted bacteriophage P4Virl dell0 DNA unknotting up to 100 uM by agarose gel electrophoresis
[3] = target: T1, DNA topoisomerase 2-alpha; assay: Enhancement of human DNA topoisomerase 2-mediated Escherichia coli pUC8 DNA cleavage after 30 mins by agarose gel electrophoresis; parameters: concentration or dose not given beside the values
Escherichia coli = assay: Binding affinity to Escherichia coli pUC8 DNA assessed as production of linear DNA at 100 ug/ml after 30 mins by agarose gel electrophoresis
[4] = target: T1, DNA topoisomerase 2-alpha; assay: Enhancement of human DNA topoisomerase 2-mediated Escherichia coli pUC8 DNA cleavage assessed as production of linear DNA at 100 ug/ml after 30 mins by agarose gel electrophoresis relative to control
[5] = target: T1, DNA topoisomerase 2-alpha; assay: Enhancement of human DNA topoisomerase 2-mediated Escherichia coli pUC8 DNA cleavage assessed as production of linear DNA at 100 ug/ml after 30 mins by agarose gel electrophoresis relative to total DNA
[6] = target: T1, DNA topoisomerase 2-alpha; assay: Inhibition of human DNA topoisomerase 2 catalytic domain-mediated knotted bacteriophage P4Virl dell0 DNA unknotting by agarose gel electrophoresis
[7] = Inhibition of calf thymus DNA topoisomerase 1 catalytic domain-mediated supercoiled Escherichia coli pUC8 DNA relaxation after 30 mins by agarose gel electrophoresis; parameters: species or system Bos taurus
[8] = target: T1, DNA topoisomerase 2-alpha; assay: Inhibition of human DNA topoisomerase 2-mediated Escherichia coli pUC8 DNA cleavage enhancement assessed as absence of linear DNA production after 30 mins by agarose gel electrophoresis in presence of prunetin
Bos taurus [9] = species on record: Bos taurus; assay: Inhibition of calf thymus DNA topoisomerase 1-mediated Escherichia coli pUC8 DNA cleavage enhancement assessed as absence of linear DNA production after 30 mins by agarose gel electrophoresis in presence of camptothecin
[10] = target: T1, DNA topoisomerase 2-alpha; assay: Inhibition of human DNA topoisomerase 2-mediated Escherichia coli pUC8 DNA cleavage enhancement assessed as absence of linear DNA production at 100 ug/ml after 30 mins by agarose gel electrophoresis in presence of 100 ug/ml genistein
[11] = target: T1, DNA topoisomerase 2-alpha; assay: Inhibition of human DNA topoisomerase 2-mediated Escherichia coli pUC8 DNA cleavage enhancement assessed as reduction of linear DNA production after 30 mins by agarose gel electrophoresis in presence of 10 fold excess genistein
[12] = target: T1, DNA topoisomerase 2-alpha; assay: Enhancement of human DNA topoisomerase 2-mediated Escherichia coli pUC8 DNA cleavage assessed as production of linear DNA at 3 to 100 ug/ml after 30 mins by agarose gel electrophoresis
[13] = target: T1, DNA topoisomerase 2-alpha; assay: Enhancement of human DNA topoisomerase 2-mediated Escherichia coli pUC8 DNA cleavage assessed as production of linear DNA at 30 ug/ml after 30 mins by agarose gel electrophoresis
[14] = target: T1, DNA topoisomerase 2-alpha; assay: Enhancement of human DNA topoisomerase 2-mediated Escherichia coli pUC8 DNA cleavage assessed as production of linear DNA at 100 ug/ml after 30 mins by agarose gel electrophoresis
Bos taurus [15] = species on record: Bos taurus; assay: Inhibition of calf thymus DNA topoisomerase 1 catalytic domain-mediated supercoiled Escherichia coli pUC8 DNA relaxation at 100 uM after 30 mins by agarose gel electrophoresis
[16] = target: T1, DNA topoisomerase 2-alpha; assay: Inhibition of human DNA topoisomerase 2 catalytic domain-mediated knotted bacteriophage P4Virl dell0 DNA unknotting at 100 uM by agarose gel electrophoresis

T1 sequence (P11388 whole entry, the tested form may be a part): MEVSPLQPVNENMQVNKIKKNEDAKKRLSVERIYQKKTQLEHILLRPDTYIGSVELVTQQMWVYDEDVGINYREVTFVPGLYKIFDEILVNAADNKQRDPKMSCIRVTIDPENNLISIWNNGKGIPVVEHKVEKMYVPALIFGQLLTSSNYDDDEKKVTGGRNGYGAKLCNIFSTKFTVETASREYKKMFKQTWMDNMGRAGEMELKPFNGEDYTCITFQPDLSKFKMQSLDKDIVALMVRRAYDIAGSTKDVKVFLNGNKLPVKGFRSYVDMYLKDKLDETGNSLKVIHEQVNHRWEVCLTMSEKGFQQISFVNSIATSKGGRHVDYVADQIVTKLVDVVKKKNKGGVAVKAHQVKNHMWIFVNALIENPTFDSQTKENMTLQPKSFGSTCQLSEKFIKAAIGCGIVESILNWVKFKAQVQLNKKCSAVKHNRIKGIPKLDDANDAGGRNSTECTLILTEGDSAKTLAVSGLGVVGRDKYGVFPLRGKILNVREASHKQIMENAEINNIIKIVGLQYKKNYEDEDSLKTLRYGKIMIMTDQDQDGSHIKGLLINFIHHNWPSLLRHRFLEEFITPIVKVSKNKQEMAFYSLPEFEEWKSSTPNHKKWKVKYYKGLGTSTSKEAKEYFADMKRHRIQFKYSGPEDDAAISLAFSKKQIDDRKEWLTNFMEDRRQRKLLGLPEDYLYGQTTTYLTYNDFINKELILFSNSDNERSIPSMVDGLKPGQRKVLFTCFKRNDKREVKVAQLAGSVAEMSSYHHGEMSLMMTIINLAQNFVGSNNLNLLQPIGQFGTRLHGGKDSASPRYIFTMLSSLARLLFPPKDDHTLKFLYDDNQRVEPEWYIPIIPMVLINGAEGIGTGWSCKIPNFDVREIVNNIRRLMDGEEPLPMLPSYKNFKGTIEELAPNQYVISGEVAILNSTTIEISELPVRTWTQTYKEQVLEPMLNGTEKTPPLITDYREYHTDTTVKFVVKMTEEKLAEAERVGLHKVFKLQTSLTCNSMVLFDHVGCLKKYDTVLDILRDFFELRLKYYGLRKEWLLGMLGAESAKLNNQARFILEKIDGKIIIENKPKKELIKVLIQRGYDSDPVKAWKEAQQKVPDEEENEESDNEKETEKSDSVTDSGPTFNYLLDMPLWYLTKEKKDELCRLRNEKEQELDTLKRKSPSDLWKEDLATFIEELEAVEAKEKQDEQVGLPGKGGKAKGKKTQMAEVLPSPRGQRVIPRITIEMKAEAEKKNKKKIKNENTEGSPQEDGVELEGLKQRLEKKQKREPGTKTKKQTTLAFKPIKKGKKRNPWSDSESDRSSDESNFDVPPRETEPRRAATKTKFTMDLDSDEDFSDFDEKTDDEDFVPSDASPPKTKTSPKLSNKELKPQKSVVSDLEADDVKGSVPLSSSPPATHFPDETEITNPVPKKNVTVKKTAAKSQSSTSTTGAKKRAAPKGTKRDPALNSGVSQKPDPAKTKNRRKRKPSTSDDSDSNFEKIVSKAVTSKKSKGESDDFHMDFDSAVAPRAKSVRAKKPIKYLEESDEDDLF

SMILES	Activity (Bos taurus [1])	Activity [2]	Activity [3] [%]	IC50 [6] [µM]	other results
O=c1cc(-c2ccccc2)oc2cc(O)ccc12	inactive	inactive	–	–	–
O=c1cc(-c2ccc(O)cc2)oc2cc(O)cc(O)c12	inactive	inactive	60	–	Activity (Escherichia coli): inactive; Activity [4]: 1.6; Activity [5]: 8.7%
O=c1c(O)c(-c2ccc(O)cc2)oc2cc(O)cc(O)c12	inactive	inactive	60	–	Activity (Escherichia coli): inactive; Activity [4]: 1.6; Activity [5]: 8.3%
O=c1c(O)c(-c2ccc(O)cc2O)oc2cc(O)cc(O)c12 [MORIN]	–	–	< 50	135	IC50 [7]: 42.1 µg/mL (≈ 139 µM)
O=c1c(O)c(-c2cc(O)c(O)c(O)c2)oc2cc(O)cc(O)c12 [MYRICETIN]	–	–	–	–	Activity [8]: Active; Activity (Bos taurus [9]): inactive; Activity [10]: Active; Activity [11]: inactive; IC50 [7]: 11.9 µg/mL (≈ 37.4 µM); Activity [12]: inactive
O=c1cc(-c2ccccc2)oc2ccc(O)cc12	inactive	inactive	< 50	–	–
O=c1c(-c2ccc(O)cc2)coc2cc(O)c(O)cc12	inactive	–	–	162	–
COc1cc(O)c2c(=O)c(-c3ccc(O)cc3)coc2c1	inactive	inactive	60	–	Activity (Escherichia coli): inactive; Activity [4]: 1.7; Activity [5]: 9.2%
C[C@@H]1O[C@@H](OC[C@H]2O[C@@H](Oc3c(-c4ccc(O)c(O)c4)oc4cc(O)cc(O)c4c3=O)[C@H](O)[C@@H](O)[C@@H]2O)[C@H](O)[C@H](O)[C@H]1O	inactive	inactive	–	–	–
O=c1cc(-c2ccccc2)oc2ccccc12	inactive	inactive	–	–	–
O=c1c(O)c(-c2ccccc2)oc2cc(O)cc(O)c12	inactive	inactive	–	–	–
O=c1cc(-c2ccccc2)oc2cccc(O)c12	inactive	inactive	< 50	–	–
O=c1c(-c2ccc(O)cc2)coc2cc(O)cc(O)c12 [GENISTEIN]	inactive	–	–	111	Activity [13]: Active; Activity (Escherichia coli): inactive; Activity [4]: 3.1; Activity [5]: 16.2%; Activity [14]: Active
O=c1c(O)c(-c2ccc(O)c(O)c2)oc2cc(O)cc(O)c12 [QUERCETIN]	–	–	60	22.8	Activity (Escherichia coli): inactive; Activity [4]: 2.2; Activity (Bos taurus [15]): Active; IC50 [7]: 12.8 µg/mL (≈ 42.4 µM); Activity [5]: 11.5%; Activity [16]: Active
O=C(CCc1ccc(O)cc1)c1c(O)cc(O)cc1O [PHLORETIN]	inactive	–	–	168	–
O=c1c(O)c(-c2ccc(O)c(O)c2)oc2cc(O)ccc12 [FISETIN]	–	–	< 50	28.6	IC50 [7]: 20.6 µg/mL (≈ 72 µM)
Oc1cc(O)c2c(c1)O[C@H](c1ccc(O)c(O)c1)[C@@H](O)C2	inactive	inactive	–	–	–
O=c1c(-c2ccc(O)cc2)coc2cc(O)ccc12	inactive	inactive	–	–	–
O=c1c(-c2ccc(O)c(O)c2)coc2cc(O)ccc12	inactive	inactive	–	–	–
O=c1c(O)c(-c2ccccc2)oc2ccccc12	inactive	inactive	–	–	–
